Experimental data published in ChEMBL document CHEMBL1201862, “PubChem BioAssay data set” (2004).
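In this assay, cells in 96-well plates receive the compound at five concentrations for 48 hours. Endpoints are linearly interpolated between the surrounding concentrations. At the GI50, growth is halved.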 Activity calls are given as the source filed them. Rule as the data show it: active = GI50 up to about 1.1 µM and inactive = higher.

Legend:
Assay in all cases: inhibition of tumour cell growth, NCI panel, 48 h
A498 = system: A498
SK-MEL-28 = system: SK-MEL-28
M14 = system: M14
DU-145 = system: DU-145
HOP-92 = system: HOP-92
K562 = system: K562
ACHN = system: ACHN
SW-620 = system: SW-620
TK-10 = system: TK-10
SF-268 = system: SF-268
HOP-62 = system: HOP-62
SNB-19 = system: SNB-19
OVCAR-4 = system: OVCAR-4
NCI-H226 = system: NCI-H226
786-0 = system: 786-0
UACC-62 = system: UACC-62
SR = system: SR
BT-549 = system: BT-549
MDA-MB-231 = system: MDA-MB-231
KM12 = system: KM12
SF-539 = system: SF-539
OVCAR-5 = system: OVCAR-5
HCC 2998 = system: HCC 2998
OVCAR-3 = system: OVCAR-3
SF-295 = system: SF-295
SK-MEL-5 = system: SK-MEL-5
MOLT-4 = system: MOLT-4
Malme-3M = system: Malme-3M
LOX IMVI = system: LOX IMVI
NCI-H522 = system: NCI-H522
CCRF-CEM = system: CCRF-CEM
RXF 393 = system: RXF 393
SNB-75 = system: SNB-75
PC-3 = system: PC-3
HCT-116 = system: HCT-116
NCI-H460 = system: NCI-H460
MDA-N = system: MDA-N
T47D = system: T47D
OVCAR-8 = system: OVCAR-8
A549 = system: A549
EKVX = system: EKVX
UACC-257 = system: UACC-257
HCT-15 = system: HCT-15
CAKI-1 = system: CAKI-1
IGROV-1 = system: IGROV-1
RPMI-8226 = system: RPMI-8226
SK-MEL-2 = system: SK-MEL-2
SN12C = system: SN12C
NCI-H23 = system: NCI-H23
HT-29 = system: HT-29
UO-31 = system: UO-31
HL-60 = system: HL-60

SMILES: Cc1cc(C)c2c(c1)C/C(=C\c1cccc(C)c1C(=O)O)C2=O
- GI50 (A498): 63.1 µM (inactive)
- GI50 (SK-MEL-28): 87.9 µM (inactive)
- GI50 (M14): 88.9 µM (inactive)
- GI50 (DU-145): 52.2 µM (inactive)
- GI50 (HOP-92): > 100 µM (inactive)
- GI50 (K562): 31.1 µM (inactive)
- GI50 (ACHN): 87.7 µM (inactive)
- GI50 (SW-620): 64.4 µM (inactive)
- GI50 (TK-10): > 100 µM (inactive)
- GI50 (SF-268): 24.4 µM (inactive)
- GI50 (HOP-62): 55 µM (inactive)
- GI50 (SNB-19): 59.6 µM (inactive)
- GI50 (OVCAR-4): 75 µM (inactive)
- GI50 (NCI-H226): 44.2 µM (inactive)
- GI50 (786-0): 57.3 µM (inactive)
- GI50 (UACC-62): 47.8 µM (inactive)
- GI50 (SR): > 100 µM (inactive)
- GI50 (BT-549): 42.9 µM (inactive)
- GI50 (MDA-MB-231): 36.1 µM (inactive)
- GI50 (KM12): 51.6 µM (inactive)
- GI50 (SF-539): 37.2 µM (inactive)
- GI50 (OVCAR-5): 99.5 µM (inactive)
- GI50 (HCC 2998): 66.5 µM (inactive)
- GI50 (OVCAR-3): 54.5 µM (inactive)
- GI50 (SF-295): 78 µM (inactive)
- GI50 (SK-MEL-5): 34.7 µM (inactive)
- GI50 (MOLT-4): 50.5 µM (inactive)
- GI50 (Malme-3M): 58.1 µM (inactive)
- GI50 (LOX IMVI): 69.5 µM (inactive)
- GI50 (NCI-H522): 30.8 µM (inactive)
- GI50 (CCRF-CEM): 36.6 µM (inactive)
- GI50 (RXF 393): 72.9 µM (inactive)
- GI50 (SNB-75): 55 µM (inactive)
- GI50 (PC-3): 39.5 µM (inactive)
- GI50 (HCT-116): 45.9 µM (inactive)
- GI50 (NCI-H460): 41.8 µM (inactive)
- GI50 (MDA-N): 35.3 µM (inactive)
- GI50 (T47D): > 100 µM (inactive)
- GI50 (OVCAR-8): 52.7 µM (inactive)
- GI50 (A549): 43.3 µM (inactive)
- GI50 (EKVX): 60.7 µM (inactive)
- GI50 (UACC-257): 33.3 µM (inactive)
- GI50 (HCT-15): 49.5 µM
- GI50 (CAKI-1): > 100 µM (inactive)
- GI50 (IGROV-1): 50.7 µM (inactive)
- GI50 (RPMI-8226): 68.5 µM (inactive)
- GI50 (SK-MEL-2): 89.9 µM (inactive)
- GI50 (SN12C): 42.6 µM (inactive)
- GI50 (NCI-H23): 63.2 µM (inactive)
- GI50 (HT-29): 72.6 µM (inactive)
- GI50 (UO-31): 39.6 µM (inactive)
- GI50 (HL-60): > 100 µM (inactive)
